{"source": "patent US12460263B2", "about": "“Genetic variants for diagnosis of Alzheimer's disease” (The Hong Kong University of Science and Technology, priority 2019, dated 2025)", "key": {"[1]": {"system": "serum sST2", "assay": "Trazodone treatment of mice, serum sST2 level by ELISA", "type": "in vivo, mouse", "conditions": "18 mo", "method": "Trazodone treatment of mice: Mice were treated with Trazodone or vehicle control either by intraperitoneal (IP) injection or oral administration. For IP injection, mice were daily injected with 50 mg/kg Trazodone or vehicle (saline). For oral administration, mice were daily fed with 100 mg/kg Trazodone or vehicle (water). After the 2 days, 4 days, 7 days or 14 days of treatment, mouse blood was collected by intracardial bleed at time of sacrifice. The blood without anticoagulants was incubated at room temperature for 2 h and then centrifuged at 2,000×g for 20 min. The serum sST2 level was measured using the Mouse ST2/IL-33 R Quantikine ELISA Kit (MST200, R&D)."}, "[2]": {"assay": "Association analysis of cognitive performance (MoCA score) and medication history in female AD patients", "type": "in vivo, human", "conditions": "association with medication history, P=0.0202", "source_text": "(§1) Subject Recruitment for the Hong Kong Chinese AD Cohort: A cohort of Hong Kong Chinese was recruited from individuals who visited the Specialist Outpatient Department of the Prince of Wales Hospital, the Chinese University of Hong Kong. A total of 427 subjects were recruited: 233 with AD and 194 normal controls (NCs). All subjects were ≥60 years old. The clinical diagnosis of AD was established based on the American Psychiatric Association's Diagnostic and Statistical Manual of Mental Disorders, Fifth Edition (DSM-5). All subjects were given medical history assessment, cognitive and functional assessment through the Montreal Cognitive Assessment (MoCA) test, and neuroimaging assessment by MRI. Each individual's data, including age, sex, education, medical history, and cardiovascular disease history, were recorded. Individuals with any significant neurological disease or psychiatric disorder were excluded. The plasma of subjects was collected and stored at −80° C. as aliquots until use. This study was approved by the Prince of Wales Hospital, the Chinese University of Hong Kong, and the Hong Kong University of Science and Technology. All participants provided written informed consent for both study enrollment and sample collection. Absolute blood cell count was determined by complete blood count (CBC) at the Prince of Wales Hospital. […]"}, "[3]": {"system": "plasma sST2 protein", "assay": "Association analysis of plasma sST2 protein level (ELISA) and medication in Hong Kong female AD patients", "type": "in vivo, human", "conditions": "female AD patients taking trazodone (n=15) vs not taking (n=149), Hong Kong Chinese AD cohort, linear regression adjusted for age and population structure, ***P<0.001", "source_text": "as §1, with “This study was approved by the Prince of Wales Hospital, the Chinese University of Hong Kong, and the Hong Kong University of Science and Technology. All participants provided written informed consent for both study enrollment and sample collection.” left out\nDetection of Soluble ST2 Protein by ELISA: Human plasma and CSF soluble ST2 (sST2) protein levels were measured using the Human ST2/IL-33 R Quantikine ELISA Kit (DST200). […]"}}, "note": "Entries after “also recorded” stand apart in the source; their conditions may differ.", "data": [{"smiles": "O=c1n(CCCN2CCN(c3cccc(Cl)c3)CC2)nc2ccccn12", "note": "[Trazodone, trazodone]", "values": [{"measurement": "serum sST2 level", "setting": "[1]; female APP/PS1 mice, daily 100 mg/kg oral for 7 or 14 days vs vehicle, n=5/group, 100 mg/kg", "value": "reduction of serum sST2 level; also recorded: down-regulates the serum sST2 level"}, {"measurement": "serum sST2 level", "setting": "[1]; female wildtype mice, daily 50 mg/kg IP or 100 mg/kg oral for 2 or 4 days vs vehicle, n=2/group", "value": "reduction of serum sST2 level; also recorded: down-regulates the serum sST2 level"}, {"measurement": "cognitive performance (MoCA score)", "setting": "[2]", "value": "altered cognitive performance"}, {"measurement": "plasma sST2 level", "setting": "[3]", "value": "decreased plasma sST2 level"}, {"measurement": "plasma sST2 level", "setting": "[3]; listed as trazodone", "value": "effective agent to lower plasma sST2 level"}]}]}
